Some test systems named below: HCT-116 colon; HL-60(TB) leukemia; T-47D breast; PC-3 prostate; MCF7 breast; OVCAR-5 ovarian; SR leukemia.
Holding throughout (assay): growth of human tumour cells (NCI), 48 h

In PubChem BioAssay (NCI) one finds GI50 and TGI data, which are given here for 14 compounds.

SMILES strings stand for the structures.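 Each compound was tested at five concentrations against cells in 96-well plates for 48 hours. GI50 marks 50% less growth. TGI: concentration producing complete growth inhibition.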

Regarding `Cc1cc(I)cc(CN(C)CCCN2CCSCC2)c1O`, the GI50 in the experiment on HCT-116 colon was 13.3 µM; in the experiment on HL-60(TB) leukemia it was 18.8 µM; with T-47D breast it was 31.3 µM; in the experiment on PC-3 prostate, 29.8 µM; in the experiment with MCF7 breast, 18.5 µM; in the experiment with OVCAR-5 ovarian, 29.1 µM. Further, in the experiment on SR leukemia, the GI50 was 10.6 µM. The TGI is 30.8 µM with HCT-116 colon; 36.6 µM in the experiment on HL-60(TB) leukemia; more than 100 µM with T-47D breast; more than 100 µM in the experiment on PC-3 prostate; 40.5 µM in the experiment with MCF7 breast; 92.4 µM with OVCAR-5 ovarian. The compound also yielded a TGI in the experiment with SR leukemia of 25.3 µM.
`COc1cc(C(=O)/C(C)=C/c2c[nH]c3ccccc23)cc(OC)c1OC`: the GI50 in the experiment with HCT-116 colon was 0.00359 µM; in the experiment with HL-60(TB) leukemia, 0.00228 µM; in the experiment on T-47D breast it was 2.46 µM; in the experiment on PC-3 prostate, 0.00789 µM; with MCF7 breast, 0.00357 µM; with OVCAR-5 ovarian, 0.0842 µM. Besides, the GI50 in the experiment on SR leukemia was 0.00333 µM. Moreover, the TGI with HCT-116 colon was more than 100 µM; in the experiment on HL-60(TB) leukemia it was 0.00652 µM; in the experiment with T-47D breast it was more than 100 µM; with PC-3 prostate, more than 100 µM; in the experiment on MCF7 breast, more than 100 µM; in the experiment with OVCAR-5 ovarian it was more than 100 µM.
On to `O=C(O[C@H]1CN[C@H](C#Cc2cc3ncnc(Nc4ccc5c(ccn5Cc5cc(F)ccc5F)c4)c3s2)C1)N1CCOCC1`, for which the GI50 in the experiment on HCT-116 colon is 3.19 µM; in the experiment with HL-60(TB) leukemia it was 3.5 µM; with T-47D breast, 0.206 µM; with PC-3 prostate, 5.52 µM; with MCF7 breast, 4.13 µM; with OVCAR-5 ovarian it was 1.07 µM. The GI50 in the experiment on SR leukemia is 6.28 µM. Moreover, the TGI was 7.44 µM with HCT-116 colon; 11 µM in the experiment with HL-60(TB) leukemia; 7.1 µM in the experiment with T-47D breast; more than 23.7 µM in the experiment with PC-3 prostate; more than 14.5 µM in the experiment on MCF7 breast; 11.1 µM in the experiment on OVCAR-5 ovarian. This compound also had a TGI in the experiment on SR leukemia of 24.5 µM.
Regarding `COC(=O)c1cc2c(cc1Cl)SC(N(N(C)C)S(=O)(=O)c1ccc(Br)s1)=NS2(=O)=O`, the GI50 in the experiment with HCT-116 colon is 26.6 µM; with HL-60(TB) leukemia, 19.6 µM; with T-47D breast, 12.8 µM; in the experiment on PC-3 prostate it was 16 µM; with MCF7 breast, 22.4 µM; in the experiment with OVCAR-5 ovarian it was 29.8 µM. Moreover, in the experiment with SR leukemia, the GI50 was 13.3 µM. Besides, the TGI with HCT-116 colon is 73.6 µM; in the experiment with HL-60(TB) leukemia, 44.5 µM; in the experiment with T-47D breast it was 43.1 µM; with PC-3 prostate it was 35.1 µM; in the experiment on MCF7 breast, 44.7 µM; in the experiment with OVCAR-5 ovarian, 81.1 µM. The compound also had a TGI in the experiment with SR leukemia of 35.4 µM.
Turning to `O=c1c2cc(Cl)ccc2oc2ccc(OCCCCCN3CCCCC3)cc12`, the GI50 in the experiment on HCT-116 colon was 1.75 µM; with HL-60(TB) leukemia it was 6.24 µM; in the experiment on T-47D breast, 7.21 µM; in the experiment with PC-3 prostate it was 6.05 µM; with MCF7 breast, 5.24 µM; in the experiment on OVCAR-5 ovarian, 5.17 µM. Also, the GI50 in the experiment with SR leukemia was 1.47 µM. Also, the TGI with HCT-116 colon worked out at 6.8 µM; in the experiment with HL-60(TB) leukemia, 15.4 µM; with T-47D breast, 17 µM; in the experiment with PC-3 prostate it was 12.7 µM; in the experiment with MCF7 breast, 14.6 µM; in the experiment on OVCAR-5 ovarian it was 11.2 µM. The TGI with SR leukemia came out at 5.47 µM.
Regarding `CN[C@@H](C)C(=O)N[C@H](C(=O)N1CCC[C@H]1C(=O)N[C@H]1c2ccccc2C[C@H]1OCC#CC#CCO[C@@H]1Cc2ccccc2[C@@H]1NC(=O)[C@@H]1CCCN1C(=O)[C@@H](NC(=O)[C@H](C)NC)C1CCCCC1)C1CCCCC1`, the GI50 in the experiment with HCT-116 colon is 3.68 µM; in the experiment on HL-60(TB) leukemia, less than 0.01 µM; in the experiment with T-47D breast, 1.81 µM; in the experiment with PC-3 prostate, 6.04 µM; in the experiment on MCF7 breast, 1.47 µM; with OVCAR-5 ovarian, 18.1 µM. Besides, in the experiment on SR leukemia, the GI50 is 0.456 µM. For the same compound, the TGI with HCT-116 colon is 14.1 µM; in the experiment with HL-60(TB) leukemia, 0.252 µM; in the experiment with T-47D breast, 4.39 µM; in the experiment on PC-3 prostate, 18.7 µM; in the experiment with MCF7 breast it was 3.23 µM; with OVCAR-5 ovarian it was 34.6 µM. Moreover, the TGI with SR leukemia worked out at 3.16 µM.
Consider `CC(C)=CCCC(C)c1ccc(C)c2c1OCN(CC1CCNCC1)C2` (stereo not drawn), for which the GI50 with HCT-116 colon is 7.17 µM; in the experiment on HL-60(TB) leukemia it was 3.9 µM; in the experiment with T-47D breast, 15.2 µM; with PC-3 prostate it was 16.5 µM; with MCF7 breast it was 6.15 µM; with OVCAR-5 ovarian, 14.3 µM. For the same compound, in the experiment with SR leukemia, the GI50 is 2.79 µM. The TGI in the experiment with HCT-116 colon was 21.7 µM; with HL-60(TB) leukemia, 18.9 µM; in the experiment on T-47D breast it was 33.2 µM; with PC-3 prostate, 42.1 µM; with MCF7 breast, 18.7 µM; in the experiment with OVCAR-5 ovarian, 28.8 µM. Also, the TGI in the experiment on SR leukemia is 9.83 µM.
As for `COc1cc(/C=C/C(=O)CC(=O)/C=C/c2cc(OC)c(OC)c(OC)c2)cc(OC)c1OC`, the GI50 in the experiment with HCT-116 colon is 1.71 µM; in the experiment on HL-60(TB) leukemia it was 5.15 µM; in the experiment on T-47D breast it was 3.98 µM; in the experiment with PC-3 prostate, 3.02 µM; in the experiment on MCF7 breast it was 2.13 µM; in the experiment with OVCAR-5 ovarian it was 17.2 µM. Also, in the experiment with SR leukemia, the GI50 was 2.19 µM. The TGI was 4.26 µM in the experiment with HCT-116 colon; more than 100 µM in the experiment on HL-60(TB) leukemia; 84.5 µM with T-47D breast; more than 100 µM in the experiment with PC-3 prostate; more than 100 µM in the experiment with MCF7 breast; more than 100 µM in the experiment on OVCAR-5 ovarian. This compound returned a TGI in the experiment on SR leukemia of 9.55 µM.
Turning to `CC1=C2[C@@H](CC1)[C@]1(C)O[C@@](C3CCCCC3)(C[C@H]1OC(=O)CO)[C@H]2OC(=O)/C=C/c1ccccc1`, the GI50 in the experiment on HCT-116 colon was 7.12 µM; in the experiment on HL-60(TB) leukemia it was 6.48 µM; in the experiment on T-47D breast, 4.69 µM; with PC-3 prostate, 6.33 µM; in the experiment on MCF7 breast, 3.09 µM; with OVCAR-5 ovarian, 15.2 µM. Besides, in the experiment with SR leukemia, the GI50 was 4.6 µM. For the same compound, the TGI in the experiment on HCT-116 colon turned out to be 21.1 µM; with HL-60(TB) leukemia, 18.3 µM; in the experiment with T-47D breast it was 17.5 µM; in the experiment on PC-3 prostate it was 21.2 µM; in the experiment on MCF7 breast, 13.4 µM; in the experiment with OVCAR-5 ovarian it was 37.1 µM. Further, the TGI with SR leukemia worked out at 17.9 µM.
For the compound `CC(=O)c1c(C)[nH]c(-c2nc3ccc(N4CCN(C)CC4)cc3[nH]2)c1-c1ccc(OCC2CCOCC2)cc1`, the GI50 was 0.714 µM with HCT-116 colon; 0.129 µM in the experiment on HL-60(TB) leukemia; 0.445 µM in the experiment with T-47D breast; 0.693 µM in the experiment on PC-3 prostate; 0.218 µM in the experiment with MCF7 breast; 1.62 µM in the experiment with OVCAR-5 ovarian. Also, the GI50 in the experiment on SR leukemia was 0.685 µM. For the same compound, the TGI with HCT-116 colon is 12.7 µM; in the experiment with HL-60(TB) leukemia, 0.785 µM; in the experiment with T-47D breast, 20.6 µM; in the experiment on PC-3 prostate it was 19.3 µM; in the experiment with MCF7 breast, 11.6 µM; in the experiment with OVCAR-5 ovarian, 32.2 µM. Further, the TGI in the experiment with SR leukemia was determined as 5.73 µM.
Turning to `CC(C)c1ccc(C(=O)Nc2nc3ccc(O)cc3s2)cc1`, the GI50 in the experiment on HCT-116 colon was 0.468 µM; in the experiment on HL-60(TB) leukemia, 0.481 µM; in the experiment with T-47D breast, 0.715 µM; in the experiment on PC-3 prostate, 3.23 µM; with MCF7 breast, 0.442 µM; in the experiment on OVCAR-5 ovarian, 7.68 µM. Also, the GI50 in the experiment with SR leukemia was 0.715 µM. Besides, the TGI is more than 100 µM with HCT-116 colon; 20.2 µM with HL-60(TB) leukemia; more than 100 µM with T-47D breast; more than 100 µM in the experiment with PC-3 prostate; 48.2 µM with MCF7 breast; more than 100 µM in the experiment with OVCAR-5 ovarian. This compound had a TGI with SR leukemia of 68.7 µM.
With `Cn1c([N+](=O)[O-])cnc1/C=C1\Oc2ccccc2C1=O`, the GI50 in the experiment on HCT-116 colon is 0.187 µM; with HL-60(TB) leukemia, 0.28 µM; in the experiment with T-47D breast it was 12.7 µM; in the experiment on PC-3 prostate it was 1.46 µM; with MCF7 breast, 0.46 µM; with OVCAR-5 ovarian it was 1.99 µM. Also, the GI50 in the experiment on SR leukemia was 0.0392 µM. The TGI with HCT-116 colon was 1.06 µM; in the experiment on HL-60(TB) leukemia, 1.5 µM; in the experiment on T-47D breast, 68.8 µM; in the experiment on PC-3 prostate, more than 22.7 µM; with MCF7 breast, 8.88 µM; in the experiment with OVCAR-5 ovarian it was 6.63 µM. Moreover, in the experiment on SR leukemia, the TGI is 0.534 µM.
`CN1CCN(CCCN)CC1`: the TGI with HCT-116 colon, in the experiment on HL-60(TB) leukemia, with T-47D breast, in the experiment on PC-3 prostate, with MCF7 breast and with OVCAR-5 ovarian was more than 100 µM throughout. For the same compound, in the experiment on SR leukemia, the TGI was more than 100 µM.
Take `CC[C@H](NC(=O)[C@H](C)NC)C(=O)N1C[C@@H](O)C[C@H]1Cc1c(-c2[nH]c3cc(F)ccc3c2C[C@@H]2C[C@H](O)CN2C(=O)[C@H](CC)NC(=O)[C@H](C)NC)[nH]c2cc(F)ccc12`: the GI50 is more than 100 µM in the experiment on HCT-116 colon; 7.15 µM with HL-60(TB) leukemia; more than 100 µM in the experiment with T-47D breast; more than 100 µM with PC-3 prostate; more than 53.3 µM with MCF7 breast; more than 100 µM in the experiment on OVCAR-5 ovarian. Moreover, in the experiment with SR leukemia, the GI50 was 15.5 µM. The TGI with HCT-116 colon was more than 100 µM; with HL-60(TB) leukemia it was 42.9 µM; with T-47D breast, more than 100 µM; in the experiment with PC-3 prostate it was more than 100 µM; in the experiment with MCF7 breast, more than 100 µM; with OVCAR-5 ovarian, more than 100 µM. This compound showed a TGI in the experiment on SR leukemia of more than 100 µM.
